This is an account of results in PMC7151078, “A Novel NMDA Receptor Antagonist Protects against Cognitive Decline Presented by Senescent Mice” (Pharmaceutics, 2020).

SMILES strings stand for the structures.

What all share (assay type): in vivo, mouse
The test system of assay [1] is SAMR1 and SAMP8 mice. Briefly: Three-chamber test (TCT). The following applies: SAMP8 strain, 5 mg/kg/day, vs SP8 Ct. The method, then:
Male SAMR1 and SAMP8 mice (n = 41) with 20-weeks-old were used to carry out cognitive and molecular analysis. The animals were randomly divided into four groups: SAMR1 control (SR1 Ct) group (n = 11), SAMP8 control (SP8 Ct) group (n = 8), SAMR1 treated with RL-208 (SR1 RL-208 (5 mg/Kg)) group (n = 10) and SAMP8 treated with RL-208 (SP8 RL-208 (5 mg/Kg)) group (n = 12). Animals had free access to food and water, under standard temperature conditions (22±2 °C) and 12h:12h light-dark cycles (300 lux/0 lux). RL-208, (3,4,8,9-tetramethyltetracyclo[4.4.0.0^3,9.0^4,8]dec-1-yl)-methylamine hydrochloride, (5 mg/kg/day) was administered through drinking water for four weeks before starting the cognitive test. RL-208 was administered up to euthanasia (Figure 1A). Water consumption was controlled each week for each cage and strain. […]
The three-chamber test (TCT) was used to assess preference for social novelty (time spent with a novel intruder in contrast with a familiar one) and sociability (time spent with rodents). […] Each test consists of 15 minutes and is recorded with a camera. […] The time spent in each chamber was evaluated. Then, an intruder (same-sex and age) was added to one of the rooms in a metal cup, and behaviour is recorded for 10 minutes. The time spent in each chamber is evaluated as well as the time interacting with the intruder (e.g., sniffing, rears, entries in each chamber).

In assay [2] the test system is SAMR1 and SAMP8 mice. The experiment in a line: Object location test (OLT). The following applies: both treated mice groups (SR1 and SP8), 5 mg/kg/day. The procedure: Male SAMR1 and SAMP8 mice (n = 41) with 20-weeks-old were used to carry out cognitive and molecular analysis. The animals were randomly divided into four groups: SAMR1 control (SR1 Ct) group (n = 11), SAMP8 control (SP8 Ct) group (n = 8), SAMR1 treated with RL-208 (SR1 RL-208 (5 mg/Kg)) group (n = 10) and SAMP8 treated with RL-208 (SP8 RL-208 (5 mg/Kg)) group (n = 12). Animals had free access to food and water, under standard temperature conditions (22±2 °C) and 12h:12h light-dark cycles (300 lux/0 lux). RL-208, (3,4,8,9-tetramethyltetracyclo[4.4.0.0^3,9.0^4,8]dec-1-yl)-methylamine hydrochloride, (5 mg/kg/day) was administered through drinking water for four weeks before starting the cognitive test. RL-208 was administered up to euthanasia (Figure 1A). Water consumption was controlled each week for each cage and strain. Afterwards, RL-208 concentration was adjusted accordingly to reach the optimal dose for each cage. […] Trials were recorded using a camera mounted above the open field area, and the total exploration time was determined by scoring the amount of time (seconds) spent sniffing the object in the new location (TN) and the object in the old location (TO). In order to evaluate the cognitive performance, the DI was calculated, which is defined as (TN-TO)/(TN+TO).

The test system of assay [3] is SAMR1 and SAMP8 mice. The experiment in a line: Hippocampal protein levels by Western blotting. Conditions: hippocampus. The method, then: Male SAMR1 and SAMP8 mice (n = 41) with 20-weeks-old were used to carry out cognitive and molecular analysis. The animals were randomly divided into four groups: SAMR1 control (SR1 Ct) group (n = 11), SAMP8 control (SP8 Ct) group (n = 8), SAMR1 treated with RL-208 (SR1 RL-208 (5 mg/Kg)) group (n = 10) and SAMP8 treated with RL-208 (SP8 RL-208 (5 mg/Kg)) group (n = 12). Animals had free access to food and water, under standard temperature conditions (22±2 °C) and 12h:12h light-dark cycles (300 lux/0 lux). RL-208, (3,4,8,9-tetramethyltetracyclo[4.4.0.0^3,9.0^4,8]dec-1-yl)-methylamine hydrochloride, (5 mg/kg/day) was administered through drinking water for four weeks before starting the cognitive test. RL-208 was administered up to euthanasia (Figure 1A). Water consumption was controlled each week for each cage and strain. Afterwards, RL-208 concentration was adjusted accordingly to reach the optimal dose for each cage. Three days after the behavioural and cognitive tests, mice were euthanized by cervical dislocation. Brains were immediately removed from the skull. The hippocampus and cortex were then isolated and frozen in powdered dry ice. They were maintained at −80 °C for further use. Tissue samples were homogenized in lysis buffer containing phosphatase and protease inhibitors (Cocktail II, Sigma). Total protein levels were obtained, and protein concentration was determined by the method of Bradford. For Western blotting (WB), aliquots of 15 μg of hippocampal protein extraction per sample were used. Protein samples were separated by Sodium dodecyl sulphate-Polyacrylamide gel electrophoresis (SDS-PAGE) (8–20%) and transferred onto Polyvinylidene difluoride (PVDF) membranes (Millipore). Afterwards, membranes were blocked in 5% non-fat milk in Tris-buffered saline (TBS) solution containing 0.1% Tween 20 TBS (TBS-T) for 1 hour at room temperature, followed by overnight incubation at a 4 °C with the primary antibodies listed in Table S1. Then, membranes were washed and incubated with secondary antibodies for 1 hour at room temperature. Immunoreactive proteins were viewed with the chemiluminescence-based detection kit, following the manufacturer’s protocol (ECL Kit, Millipore), and digital images were acquired using ChemiDoc XRS+ System (BioRad). Semi-quantitative analyses were performed using ImageLab software (BioRad), and results were expressed in arbitrary units (AU), considering control protein levels as 100%. Protein loading was routinely monitored by immunodetection of Glyceraldehyde-3-phosphate dehydrogenase (GAPDH).

In the case of `CC12CC3CC1(C)C1(C)CC3(CN)CC21C.Cl` [RL-208, (3,4,8,9-tetramethyltetracyclo [4.4.0.0^3,9.0^4,8]dec-1-yl)methylamine hydrochloride], the “time sniffing the intruder (sociability)” value in assay [1] is “significantly augmented”. In assay [2], the “OLT spatial memory (DI)” value is given as “significant higher DI values”. In assay [3] (RL-208 treated mice), the PSD95 protein levels entry is on record as “augmented but did not reach significance in SP8 mice” and the “Synaptophysin (SYN) protein levels” value is “significant increase”. The ADAM10 protein levels result in assay [3] (SAMP8) is “prevented the loss”. The SNAP25 protein levels entry in assay [3] (SP8 RL-208) was “significant-high”. Moreover, in assay [3] (SP8 RL-208 vs control group), the “CDK5 activation (p-CDK5/CDK5 ratio)” value is recorded as “significantly reduced” and the p25/p35 ratio entry is listed as “significantly reduced”. Further, in assay [3] (SP8 mice, not in SR1), the GPX1 protein levels entry is “increased, in a significant way” and the SOD1 protein levels entry is “increased, in a significant way”. Also, in assay [3] (SP8 strain, not in SR1), the “120BPD (Spectrin breakdown product)” value is on record as “reduced”, the Calpain-1 protein levels entry is reported as “reduced” and the Caspase-3 protein levels entry was “reduced”. Also, in assay [3] (both SR1 and SP8), the TrkB-FL protein levels result is reported as “increased significantly”. Besides, the “p-NMDAR (Tyr1472) protein levels” value in assay [3] (both strains) was “increased in a significant way”. Besides, the “Tau phosphorylation (Ser396)” value in assay [3] (both treated mice groups) is recorded as “significant reduction”. The NMDAR2A protein levels entry in assay [3] (neither in SR1 nor in SP8) is “did not produce significant differences”. Further, the TrkB-ICD protein levels result in assay [3] (treated mice) is “reduced”.
